PubChem BioAssay AID1963958 (Molecular Pharmacology Branch, DTP, NCI, 2024)
Values belong to the compound of their own block, whether it stands above or below them.

Tested on: MDA-MB-231 multicell spheroids, viability
Assay: Anticancer human tumor MDA-MB-231 cell line growth inhibition [PI3K];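 further: spheroids exposed to agents for seven days before reading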;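 on viability, T/C: percent of vehicle control luminescence with DMSO treated spheroids as 100%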
Conditions: for IC50: curve of first compound; for viability, T/C: stronger effect = lower value
Method in brief: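 Complex 3D spheroids (cancer cells + endothelial HUVEC + mesenchymal stem cells); drug pairs of targeted agent x inavolisib/alpelisib/duvelisib/copanlisib; half-log series from ~Cmax, max 10 microM if Cmax unknown; endpoint viability.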

[1] = second compound 0.00316 µM, first compound 0.0316 µM
[2] = second compound 0.00316 µM, first compound 0.1 µM
[3] = second compound 0.00316 µM, first compound 0.316 µM
[4] = second compound 0.00316 µM, first compound 1 µM
[5] = second compound 0.00316 µM, first compound 3.16 µM
[6] = second compound 0.00316 µM, first compound 10 µM
[7] = second compound 0.01 µM, first compound 0.0316 µM
[8] = second compound 0.01 µM, first compound 0.1 µM
[9] = second compound 0.01 µM, first compound 0.316 µM
[10] = second compound 0.01 µM, first compound 1 µM
[11] = second compound 0.01 µM, first compound 3.16 µM
[12] = second compound 0.01 µM, first compound 10 µM
[13] = second compound 0.0316 µM, first compound 0.0316 µM
[14] = second compound 0.0316 µM, first compound 0.1 µM
[15] = second compound 0.0316 µM, first compound 0.316 µM
[16] = second compound 0.0316 µM, first compound 1 µM
[17] = second compound 0.0316 µM, first compound 3.16 µM
[18] = second compound 0.0316 µM, first compound 10 µM
[19] = second compound 0.1 µM, first compound 0.0316 µM
[20] = second compound 0.1 µM, first compound 0.1 µM
[21] = second compound 0.1 µM, first compound 0.316 µM
[22] = second compound 0.1 µM, first compound 1 µM
[23] = second compound 0.1 µM, first compound 3.16 µM
[24] = second compound 0.1 µM, first compound 10 µM
[25] = second compound 0.316 µM, first compound 0.0316 µM
[26] = second compound 0.316 µM, first compound 0.1 µM
[27] = second compound 0.316 µM, first compound 0.316 µM
[28] = second compound 0.316 µM, first compound 1 µM
[29] = second compound 0.316 µM, first compound 3.16 µM
[30] = second compound 0.316 µM, first compound 10 µM
[31] = second compound 1 µM, first compound 0.0316 µM
[32] = second compound 1 µM, first compound 0.1 µM
[33] = second compound 1 µM, first compound 0.316 µM
[34] = second compound 1 µM, first compound 1 µM
[35] = second compound 1 µM, first compound 3.16 µM
[36] = second compound 1 µM, first compound 10 µM

IC50 (second compound 0.00316 µM): > 10000 nM | IC50 (second compound 0.01 µM): > 10000 nM | IC50 (second compound 0.0316 µM): > 10000 nM | IC50 (second compound 0.1 µM): < 31.6 nM | IC50 (second compound 0.316 µM): < 31.6 nM | IC50 (second compound 1 µM): < 31.6 nM
Structure (SMILES): CC1(C)CCC(CN2CCN(c3ccc(C(=O)NS(=O)(=O)c4ccc(NCC5CCOCC5)c([N+](=O)[O-])c4)c(Oc4cnc5[nH]ccc5c4)c3)CC2)=C(c2ccc(Cl)cc2)C1 + COc1c(OCCCN2CCOCC2)ccc2c3n(c(=NC(=O)c4cnc(N)nc4)nc12)CCN3
viability, T/C [1]: 100% | viability, T/C [2]: 96.4% | viability, T/C [3]: 96.8% | viability, T/C [4]: 104% | viability, T/C [5]: 102% | viability, T/C [6]: 104% | viability, T/C [7]: 82.1% | viability, T/C [8]: 80.1% | viability, T/C [9]: 85% | viability, T/C [10]: 91.1% | viability, T/C [11]: 85.2% | viability, T/C [12]: 83.9% | viability, T/C [13]: 65.9% | viability, T/C [14]: 66.4% | viability, T/C [15]: 65.2% | viability, T/C [16]: 65.7% | viability, T/C [17]: 67.4% | viability, T/C [18]: 66.5% | viability, T/C [19]: 46.2% | viability, T/C [20]: 45.6% | viability, T/C [21]: 48.1% | viability, T/C [22]: 47.7% | viability, T/C [23]: 48.9% | viability, T/C [24]: 44.9% | viability, T/C [25]: 35.6% | viability, T/C [26]: 34.8% | viability, T/C [27]: 36.1% | viability, T/C [28]: 35.3% | viability, T/C [29]: 35.8% | viability, T/C [30]: 33.6% | viability, T/C [31]: 25.7% | viability, T/C [32]: 26.2% | viability, T/C [33]: 24.5% | viability, T/C [34]: 23.9% | viability, T/C [35]: 25.1% | viability, T/C [36]: 22.2%

IC50 (second compound 0.00316 µM): 5140 nM | IC50 (second compound 0.01 µM): 3480 nM | IC50 (second compound 0.0316 µM): 1650 nM | IC50 (second compound 0.1 µM): < 31.6 nM | IC50 (second compound 0.316 µM): < 31.6 nM | IC50 (second compound 1 µM): < 31.6 nM
Structure (SMILES): CCCS(=O)(=O)Nc1ccc(F)c(C(=O)c2c[nH]c3ncc(-c4ccc(Cl)cc4)cc23)c1F + COc1c(OCCCN2CCOCC2)ccc2c3n(c(=NC(=O)c4cnc(N)nc4)nc12)CCN3
viability, T/C [1]: 104% | viability, T/C [2]: 103% | viability, T/C [3]: 96.6% | viability, T/C [4]: 76.5% | viability, T/C [5]: 63.1% | viability, T/C [6]: 34.8% | viability, T/C [7]: 74.4% | viability, T/C [8]: 91.3% | viability, T/C [9]: 80.4% | viability, T/C [10]: 67.6% | viability, T/C [11]: 53% | viability, T/C [12]: 32.3% | viability, T/C [13]: 65.1% | viability, T/C [14]: 64.7% | viability, T/C [15]: 62.7% | viability, T/C [16]: 57% | viability, T/C [17]: 41% | viability, T/C [18]: 25.3% | viability, T/C [19]: 48% | viability, T/C [20]: 49.8% | viability, T/C [21]: 50% | viability, T/C [22]: 44.5% | viability, T/C [23]: 34% | viability, T/C [24]: 20.9% | viability, T/C [25]: 34.8% | viability, T/C [26]: 35.1% | viability, T/C [27]: 34.4% | viability, T/C [28]: 30.7% | viability, T/C [29]: 24.4% | viability, T/C [30]: 15.7% | viability, T/C [31]: 28.2% | viability, T/C [32]: 28.3% | viability, T/C [33]: 26.7% | viability, T/C [34]: 24.9% | viability, T/C [35]: 20.3% | viability, T/C [36]: 13.2%

IC50 (second compound 0.00316 µM): > 10000 nM | IC50 (second compound 0.01 µM): > 10000 nM | IC50 (second compound 0.0316 µM): 1730 nM | IC50 (second compound 0.1 µM): 136 nM | IC50 (second compound 0.316 µM): < 31.6 nM | IC50 (second compound 1 µM): < 31.6 nM
Structure (SMILES): C[C@@H](NC(=O)c1ncnc(N)c1Cl)c1ncc(C(=O)Nc2cc(C(F)(F)F)c(Cl)cn2)s1 + COc1c(OCCCN2CCOCC2)ccc2c3n(c(=NC(=O)c4cnc(N)nc4)nc12)CCN3
viability, T/C [1]: 123% | viability, T/C [2]: 110% | viability, T/C [3]: 100% | viability, T/C [4]: 84.2% | viability, T/C [5]: 71% | viability, T/C [6]: 59.1% | viability, T/C [7]: 108% | viability, T/C [8]: 90.4% | viability, T/C [9]: 81.6% | viability, T/C [10]: 65.7% | viability, T/C [11]: 59.8% | viability, T/C [12]: 52.5% | viability, T/C [13]: 75.9% | viability, T/C [14]: 72.9% | viability, T/C [15]: 61.5% | viability, T/C [16]: 54.5% | viability, T/C [17]: 45.9% | viability, T/C [18]: 39.9% | viability, T/C [19]: 61% | viability, T/C [20]: 49.6% | viability, T/C [21]: 45.4% | viability, T/C [22]: 39.4% | viability, T/C [23]: 34.2% | viability, T/C [24]: 28.3% | viability, T/C [25]: 38.8% | viability, T/C [26]: 35.3% | viability, T/C [27]: 29.4% | viability, T/C [28]: 23.4% | viability, T/C [29]: 20.3% | viability, T/C [30]: 15.9% | viability, T/C [31]: 33.4% | viability, T/C [32]: 25.4% | viability, T/C [33]: 23.2% | viability, T/C [34]: 18.2% | viability, T/C [35]: 15.3% | viability, T/C [36]: 10.6%
